Results published in patent US12091653B2, “Strain of Glutamicibacter, originating from insects, capable of efficiently degrading bifenthrin” (Anhui Agricultural University, priority 2023, dated 2024).

Tested on: E. grisescens larvae
Experiment: Toxicity testing of 2,4-di-tert-butylphenol in artificial food fed to E. grisescens larvae
Format: in vivo, Ectropis grisescens
Conditions: 100 mg/L in sterile artificial food, 48 hours
Protocol: A stock solution of 2,4-di-tert-butylphenol (purchased from Beijing Solarbio Science & Technology Co., Ltd., HPLC≥99%) was prepared following the preparation method for bifenthrin stock solution. This stock solution was added to sterile artificial food at a final concentration of 100 mg/L. This food was used to feed 30 healthy 4-5 aged E. grisescens larvae. The control group was fed normal sterile artificial food.

`CC(C)(C)c1ccc(O)c(C(C)(C)C)c1` [2,4-di-tert-butylphenol] was tested. Which “toxicity to E. grisescens larvae” value did it give?
The value was “little to no toxicity”.

What about the “survival rate of E. grisescens larvae” value (control food 93.33%) of the same compound?
Its value is 94.45%.
